Experimental data taken from patent US8940909B2, “Indicator platform” (Biosynth AG, priority 2009, dated 2015).

Key:
Experiment in all cases: IO staining of colonies of beta-D-galactosidase positive/negative bacteria (Table IVb)
Assay type in all cases: cell-based
Aeromonas hydrophila 292 = conditions: Aeromonas hydrophila strain 292, b-gal +; 24 h on Nutrient Agar, 150 mg/l indicator, 100 mg/l IPTG
Escherichia coli 61 = conditions: Escherichia coli strain 61, b-gal +; 24 h on Nutrient Agar, 150 mg/l indicator, 100 mg/l IPTG
[1] = tested on: Yersinia enterocolitica 175; conditions: Yersinia enterocolitica strain 175, b-gal +/−; 24 h on Nutrient Agar, 150 mg/l indicator, 100 mg/l IPTG; on G: Growth of colonies: key: −: absent; +/−: weak; +: strong; ++: very strong
Salmonella bongori 81 = conditions: Salmonella bongori strain 81, b-gal +; 24 h on Nutrient Agar, 150 mg/l indicator, 100 mg/l IPTG
[2] = tested on: Klebsiella pneumoniae 164; conditions: Klebsiella pneumoniae strain 164, b-gal +; 24 h on Nutrient Agar, 150 mg/l indicator, 100 mg/l IPTG; on C: Color of colonies: key: −: absent; +/−: weak; +: strong; ++: very strong; on G: Growth of colonies: key: −: absent; +/−: weak; +: strong; ++: very strong
Shigella boydii 135 = conditions: Shigella boydii strain 135, b-gal −; 24 h on Nutrient Agar, 150 mg/l indicator, 100 mg/l IPTG
[3] = tested on: Streptococcus agalactiae 195; conditions: Streptococcus agalactiae strain 195, b-gal −; 24 h on Nutrient Agar, 150 mg/l indicator, 100 mg/l IPTG; on C: Color of colonies: key: −: absent; +/−: weak; +: strong; ++: very strong; on F: Fluorescence of colonies: key: −: absent; +/−: weak; +: strong; ++: very strong
[4] = tested on: Escherichia coli (O157:H7) 60; conditions: Escherichia coli (O157:H7) strain 60, b-gal +; 24 h on Nutrient Agar, 150 mg/l indicator, 100 mg/l IPTG
[5] = tested on: Staphylococcus saprophyticus 273; conditions: Staphylococcus saprophyticus strain 273, b-gal +; 24 h on Nutrient Agar, 150 mg/l indicator, 100 mg/l IPTG; on G: Growth of colonies: key: −: absent; +/−: weak; +: strong; ++: very strong
Staphylococcus aureus 2 = conditions: Staphylococcus aureus strain 2, b-gal −, 24 h on Nutrient Agar, 150 mg/l indicator, 100 mg/l IPTG
[6] = tested on: Shigella dysenteriae Serovar 1 131; conditions: Shigella dysenteriae Serovar 1 strain 131, b-gal +/−; 24 h on Nutrient Agar, 150 mg/l indicator, 100 mg/l IPTG
[7] = tested on: Staphylococcus intermedius 31; conditions: Staphylococcus intermedius strain 31, b-gal +; 24 h on Nutrient Agar, 150 mg/l indicator, 100 mg/l IPTG
Shigella sonnei 133 = conditions: Shigella sonnei strain 133, b-gal +/−; 24 h on Nutrient Agar, 150 mg/l indicator, 100 mg/l IPTG
[8] = tested on: Salmonella enteritidis 43; conditions: Salmonella enteritidis strain 43, b-gal −; 24 h on Nutrient Agar, 150 mg/l indicator, 100 mg/l IPTG; further: key: −: absent; +/−: weak; +: strong; ++: very strong
[9] = tested on: Pseudomonas aeruginosa 168; conditions: Pseudomonas aeruginosa strain 168, b-gal −, 24 h on Nutrient Agar, 150 mg/l indicator, 100 mg/l IPTG; on C: Color of colonies: key: −: absent; +/−: weak; +: strong; ++: very strong; on G: Growth of colonies: key: −: absent; +/−: weak; +: strong; ++: very strong
Bacillus subtilis 65 = conditions: Bacillus subtilis strain 65, b-gal −; 24 h on Nutrient Agar, 150 mg/l indicator, 100 mg/l IPTG
Escherichia coli 270 = conditions: Escherichia coli strain 270, b-gal +; 24 h on Nutrient Agar, 150 mg/l indicator, 100 mg/l IPTG
Enterobacter cloacae 245 = conditions: Enterobacter cloacae strain 245, b-gal +; 24 h on Nutrient Agar, 150 mg/l indicator, 100 mg/l IPTG
Citrobacter freundii 181 = conditions: Citrobacter freundii strain 181, b-gal +; 24 h on Nutrient Agar, 150 mg/l indicator, 100 mg/l IPTG
Salmonella illa 73 = conditions: Salmonella illa strain 73, b-gal +; 24 h on Nutrient Agar, 150 mg/l indicator, 100 mg/l IPTG
Serratia marcescens 40 = conditions: Serratia marcescens strain 40, b-gal +; 24 h on Nutrient Agar, 150 mg/l indicator, 100 mg/l IPTG
[10] = tested on: Listeria monocytogenes (4b) 290; conditions: Listeria monocytogenes (4b) strain 290, b-gal −; 24 h on Nutrient Agar, 150 mg/l indicator, 100 mg/l IPTG; on C: Color of colonies: key: −: absent; +/−: weak; +: strong; ++: very strong; on F: Fluorescence of colonies: key: −: absent; +/−: weak; +: strong; ++: very strong
[11] = tested on: Enterobacter aerogenes 242; conditions: Enterobacter aerogenes strain 242, b-gal +; 24 h on Nutrient Agar, 150 mg/l indicator, 100 mg/l IPTG; on C: Color of colonies: key: −: absent; +/−: weak; +: strong; ++: very strong; on G: Growth of colonies: key: −: absent; +/−: weak; +: strong; ++: very strong

With `CC(=O)c1ccccc1-n1cc(O[C@@H]2O[C@H](CO)[C@H](O)[C@H](O)[C@H]2O)c2ccc(Cl)cc21` [Indicator I16a, 1-(2-Acetylphenyl)-6-chloro-1H-indol-3-yl-beta-D-galactopyranoside] the “C: Color of colonies” value (Aeromonas hydrophila 292) was “+”, the “F: Fluorescence of colonies” value (Aeromonas hydrophila 292) was “+” and the “G: Growth of colonies” value (Aeromonas hydrophila 292) was “+”. The “C: Color of colonies” value (Escherichia coli 61) was “+”, the “F: Fluorescence of colonies” value (Escherichia coli 61) was “+” and the “G: Growth of colonies” value (Escherichia coli 61) was “+”. The “C: Color of colonies” value [1] was “−”, the “F: Fluorescence of colonies” value [1] was “−” and the “G: Growth of colonies” value [1] was “+”. For the same molecule, the “C: Color of colonies” value (Salmonella bongori 81) was “+/−”, the “F: Fluorescence of colonies” value (Salmonella bongori 81) was “+/−” and the “G: Growth of colonies” value (Salmonella bongori 81) was “+”. The “C: Color of colonies” value [2] was “+”, the “F: Fluorescence of colonies” value [2] was “+” and the “G: Growth of colonies” value [2] was “+”. The “C: Color of colonies” value (Shigella boydii 135) was “−”, the “F: Fluorescence of colonies” value (Shigella boydii 135) was “−” and the “G: Growth of colonies” value (Shigella boydii 135) was “+”. For the same molecule, the “C: Color of colonies” value [3] was “−”, the “F: Fluorescence of colonies” value [3] was “−” and the “G: Growth of colonies” value [3] was “+/−”. The “C: Color of colonies” value [4] was “+”, the “F: Fluorescence of colonies” value [4] was “+” and the “G: Growth of colonies” value [4] was “+”. For the same molecule, the “C: Color of colonies” value [5] was “+”, the “F: Fluorescence of colonies” value [5] was “+” and the “G: Growth of colonies” value [5] was “+”. The “F: Fluorescence of colonies” value (Staphylococcus aureus 2) was “−”, the “G: Growth of colonies” value (Staphylococcus aureus 2) was “+/−” and the “C: Color of colonies” value (Staphylococcus aureus 2; footnote 2: S. aureus natural color) was “−”. The “C: Color of colonies” value [6] was “−”, the “F: Fluorescence of colonies” value [6] was “−” and the “G: Growth of colonies” value [6] was “+”. For the same molecule, the “C: Color of colonies” value [7] was “+/−”, the “F: Fluorescence of colonies” value [7] was “+/−” and the “G: Growth of colonies” value [7] was “+/−”. The “C: Color of colonies” value (Shigella sonnei 133) was “+”, the “F: Fluorescence of colonies” value (Shigella sonnei 133) was “+” and the “G: Growth of colonies” value (Shigella sonnei 133) was “+”. The “C: Color of colonies” value [8] was “−”, the “F: Fluorescence of colonies” value [8] was “−” and the “G: Growth of colonies” value [8] was “+”. The “C: Color of colonies” value [9] was “−”, the “G: Growth of colonies” value [9] was “+” and the “F: Fluorescence of colonies” value ([9]; footnote 1: blue autofluorescence) was “+^1”. The “C: Color of colonies” value (Bacillus subtilis 65) was “−”, the “F: Fluorescence of colonies” value (Bacillus subtilis 65) was “−” and the “G: Growth of colonies” value (Bacillus subtilis 65) was “+”. For the same molecule, the “C: Color of colonies” value (Escherichia coli 270) was “+”, the “F: Fluorescence of colonies” value (Escherichia coli 270) was “+” and the “G: Growth of colonies” value (Escherichia coli 270) was “+”. The “C: Color of colonies” value (Enterobacter cloacae 245) was “+”, the “F: Fluorescence of colonies” value (Enterobacter cloacae 245) was “+” and the “G: Growth of colonies” value (Enterobacter cloacae 245) was “+”. For the same molecule, the “C: Color of colonies” value (Citrobacter freundii 181) was “+”, the “F: Fluorescence of colonies” value (Citrobacter freundii 181) was “+” and the “G: Growth of colonies” value (Citrobacter freundii 181) was “+”. The “C: Color of colonies” value (Salmonella illa 73) was “−”, the “F: Fluorescence of colonies” value (Salmonella illa 73) was “−” and the “G: Growth of colonies” value (Salmonella illa 73) was “+”. The “C: Color of colonies” value (Serratia marcescens 40) was “+”, the “F: Fluorescence of colonies” value (Serratia marcescens 40) was “+” and the “G: Growth of colonies” value (Serratia marcescens 40) was “+”. For the same molecule, the “C: Color of colonies” value [10] was “−”, the “F: Fluorescence of colonies” value [10] was “−” and the “G: Growth of colonies” value [10] was “+/−”. For the same molecule, the “C: Color of colonies” value [11] was “+”, the “F: Fluorescence of colonies” value [11] was “+” and the “G: Growth of colonies” value [11] was “+”.
